Data on 18 molecules can be found in patent publication EP2669276A1 (Université de Strasbourg, priority 2012, dated 2013).

One assay deals with T1, hNPFF2 (Homo sapiens, UniProt Q9Y5X5).
T1 construct: The cDNA encoding the full-length human NPFFR1 and human NPFFR2; expressed in transfected cells
Kind of assay: Receptor binding assay with [3H]-FFRFamide on CHO cell membranes expressing SF-hNPFFR2. The note with it: [3H]-FFRF-NH2 radioligand, mean of at least two experiments; for Ki: read-out: Ki NPFF2. The text has this:
(§1) The cDNA encoding the full-length human NPFFR1 and human NPFFR2 were subcloned into the pcDNA3 expression vector (Invitrogen, Cergy Pontoise, France) using standard molecular biology methods. A sequence encoding a signal sequence and a Flag epitope was fused to the 5' coding sequence of both hNPFFR1 and hNPFFR2 cDNA according to (Guan et al., 1992) resulting in a SF-hNPFFR1 and SF-hNPFFR2 constructs. These contructs were stably transfected into CHO cells.
(§2) Membranes from CHO cells stably expressing SF-hNPFFR1 or SF-hNPFFR2 were prepared as described (Becker et al., 1999). SF-hNPFFR1 or SF-hNPFFR2 membranes (10µg) were incubated for 30 min at 25 °C in a final volume of 0.5 ml containing 50 mM HEPES pH 7.4, 1 mM CaCl2, 1 mM MgCl2, 0.1% bovine serum albumin, 10 nM and 3 nM [^3H]-FFRFamide (CEA, Paris; specific activity, 13,6 Ci/mmol) for […], respectively and the ligands to be tested. Non-specific binding was determined in presence of 1 µM neuropeptide FF for SF-hNPFFR2 and 1 µM neuropeptide VF for SF -hNPFFR1. Typical total and nonspecific binding were 1200 and 200 dpm, respectively for SF-hNPFFR1 and SF-hNPFFR2. Incubation mixtures were rapidly filtered and washed with 50 mM HEPES pH 7.4, 1 mM CaCl2, 1 mM MgCl2, on 96 wells GF/B unifilter (Perkin Elmer). Unifilter plates where then dryied for 1hr at 65°C. Bound radioactivity was determined by scintillation counting with 30 µl of scintillation cocktail (O-scint, Perkin Elmer) per well on a Topcount scintillation apparatus (Perkin Elmer).

The target of another assay is T2, hNPFF1 (Homo sapiens, UniProt Q9GZQ6).
T2 construct: The cDNA encoding the full-length human NPFFR1 and human NPFFR2; expressed in transfected cells
T2 sequence (Q9GZQ6 whole entry): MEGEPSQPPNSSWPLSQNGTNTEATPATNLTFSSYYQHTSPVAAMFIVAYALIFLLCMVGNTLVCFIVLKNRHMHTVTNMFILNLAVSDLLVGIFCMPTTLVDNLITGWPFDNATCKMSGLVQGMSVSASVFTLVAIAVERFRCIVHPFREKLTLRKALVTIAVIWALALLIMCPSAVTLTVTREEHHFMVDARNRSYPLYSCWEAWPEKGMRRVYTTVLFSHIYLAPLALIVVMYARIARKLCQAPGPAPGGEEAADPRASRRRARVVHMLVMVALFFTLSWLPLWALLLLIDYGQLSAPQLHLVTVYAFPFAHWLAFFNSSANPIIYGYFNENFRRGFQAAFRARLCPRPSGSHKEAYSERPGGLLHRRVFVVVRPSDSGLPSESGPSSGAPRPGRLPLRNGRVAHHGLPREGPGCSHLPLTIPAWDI
Kind of assay: Receptor binding assay with [3H]-FFRFamide on CHO cell membranes expressing SF-hNPFFR1. The note with it: [3H]-FFRF-NH2 radioligand, mean of at least two experiments; for Ki: read-out: Ki NPFF1.
Excerpt: as §1, §2

T1 sequence (Q9Y5X5 whole entry): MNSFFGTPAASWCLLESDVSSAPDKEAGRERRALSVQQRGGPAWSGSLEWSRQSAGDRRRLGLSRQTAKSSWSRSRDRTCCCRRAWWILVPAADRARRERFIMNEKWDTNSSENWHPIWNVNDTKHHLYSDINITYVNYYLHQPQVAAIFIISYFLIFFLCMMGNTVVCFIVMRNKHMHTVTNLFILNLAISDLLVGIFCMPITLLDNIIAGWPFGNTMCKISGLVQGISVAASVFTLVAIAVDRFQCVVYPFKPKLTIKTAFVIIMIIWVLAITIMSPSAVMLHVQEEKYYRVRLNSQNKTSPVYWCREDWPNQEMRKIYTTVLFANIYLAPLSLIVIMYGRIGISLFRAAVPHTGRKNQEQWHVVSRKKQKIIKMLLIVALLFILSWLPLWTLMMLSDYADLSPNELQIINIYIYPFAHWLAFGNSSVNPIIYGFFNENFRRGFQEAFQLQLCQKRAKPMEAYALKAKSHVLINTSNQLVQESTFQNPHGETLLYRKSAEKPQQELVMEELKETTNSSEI

As to `O=C(N[C@@H](CCCN1CCOCC1)C(=O)NCCc1ccccc1)c1ccccc1-c1ccccc1` [Compound 36, (2S)-5-(morpholin-4-yl)-N-(2-phenylethyl)-2-[(2-phenylphenyl)formamido]pentanamide], at hNPFF2, 0.5 µM produced 2% inhibition and testing at 5 µM gave an inhibition of 25 ± 2%. Also, at hNPFF1, the inhibition – broadly, the relative decrease from the control value, in per cent – at 0.5 µM was 10 ± 3% and 5 µM produced 25 ± 10% inhibition.
On hNPFF2, `O=C(N[C@@H](CCCNCCc1ccccc1)C(=O)NCCc1ccccc1)c1ccccc1-c1ccccc1` [Compound 3, (2S)-N-(2-phenylethyl)-5-[(2-phenylethyl)amino]-2-[(2-phenylphenyl)formamido]pentanamide] had an inhibition at 0.5 µM of 15 ± 15% and an inhibition at 5 µM of 24 ± 6%. On hNPFF1, this molecule had an inhibition at 0.5 µM of 29 ± 2% and an inhibition at 5 µM of 61 ± 1%.
For the molecule `O=C(N[C@H](CCCN1CCCCC1)C(=O)NCCc1ccccc1)c1ccccc1-c1ccccc1` [Compound 27, (2R)-N-(2-phenylethyl)-2-[(2-phenylphenyl)formamido]-5-(piperidin-1-yl)pentanamide], on hNPFF2, the inhibition at 0.5 µM worked out at 0% and at 5 µM the inhibition was 13 ± 8%. In addition, the Ki (commonly a measure of affinity in units of concentration, obtained from inhibition or displacement) on hNPFF1 turned out to be 179 ± 64 nM.
At hNPFF2, `COc1cccc(CNCCC[C@H](NC(=O)c2ccccc2-c2ccccc2)C(=O)NCCc2ccccc2)c1` [Compound 9, (2S)-5-{[(3-methoxyphenyl)methyl]amino}-N-(2-phenylethyl)-2-[(2-phenylphenyl)formamido]pentanamide] registered an inhibition at 0.5 µM of 9 ± 1% and an inhibition at 5 µM of 45%. Besides, at hNPFF1, the inhibition at 0.5 µM came to 21 ± 4% and 5 µM produced 60 ± 3% inhibition.
With `COc1ccc(-c2ccccc2C(=O)N[C@@H](CCCN2CCCCCC2)C(=O)NCCCc2ccccc2)cc1` [Compound 30, (2S)-5-(azepan-1-yl)-2-{[2-(4-methoxyphenyl)phenyl]formamido}-N-(3-phenylpropyl)pentanamide], the Ki at hNPFF2 worked out at 76 ± 18 nM; on hNPFF1, 64 ± 32 nM.
At hNPFF2, `O=C(N[C@@H](CCCN1CCCCC1)C(=O)NCCCc1ccccc1)c1ccccc1-c1ccccc1` [Compound 28, (2S)-2-[(2-phenylphenyl)formamido]-N-(3-phenylpropyl)-5-(piperidin-1-yl)pentanamide] showed an inhibition at 0.5 µM of 0% and an inhibition at 5 µM of 17%. On hNPFF1, this molecule showed an inhibition at 0.5 µM of 16 ± 25% and an inhibition at 5 µM of 41 ± 2%.
The corresponding values for `CN(CCC[C@H](NC(=O)c1ccccc1-c1ccccc1)C(=O)NCCc1ccccc1)Cc1ccc(Cl)cc1` [Compound 20, (2S)-5-{[(4-chlorophenyl)methyl](methyl)amino}-N-(2-phenylethyl)-2-[(2-phenylphenyl)formamido]pentanamide] are 11 ± 3%, 39 ± 1%, 14 ± 7% and 51 ± 2%.
The corresponding values for `COc1ccc(CN(C)CCC[C@H](NC(=O)c2ccccc2-c2ccccc2)C(=O)NCCc2ccccc2)cc1OC` [Compound 17, (2S)-5-{[(3,4-dimethoxyphenyl)methyl](methyl)amino}-N-(2-phenylethyl)-2-[(2-phenylphenyl)formamido]pentanamide] are 18 ± 2%, 48 ± 3%, 17 ± 5% and 65 ± 6%.
On hNPFF2, `O=C(N[C@@H](CCCN1CCC(Cc2ccccc2)CC1)C(=O)NCCc1ccccc1)c1ccccc1Cl` [Compound 41, (2S)-5-(4-benzylpiperidin-1-yl)-2-[(2-chlorophenyl)formamido]-N-(2-phenylethyl)pentanamide] displayed an inhibition at 0.5 µM of 0% and an inhibition at 5 µM of 41 ± 3%. At hNPFF1, the inhibition at 0.5 µM was found to be 0% and 5 µM produced 54 ± 3% inhibition.
On hNPFF2, `O=C(N[C@@H](CCCNCc1ccc(Cl)cc1)C(=O)NCCc1ccccc1)c1ccccc1-c1ccccc1` [Compound 14, (2S)-5-{[(4-chlorophenyl)methyl]amino}-N-(2-phenylethyl)-2-[(2-phenylphenyl)formamido]pentanamide] yielded an inhibition at 0.5 µM of 16 ± 2% and an inhibition at 5 µM of 54 ± 3%. Further, on hNPFF1, the Ki came out at 45 ± 4 nM.
At hNPFF2, `O=C(N[C@@H](CCCNC1CCCCC1)C(=O)NCCc1ccccc1)c1ccccc1-c1ccccc1` [Compound 11, (2S)-5-(cyclohexylamino)-N-(2-phenylethyl)-2-[(2-phenylphenyl)formamido]pentanamide] displayed an inhibition at 0.5 µM of 8 ± 3% and an inhibition at 5 µM of 26 ± 8%. On hNPFF1, this molecule had an inhibition at 0.5 µM of 49 ± 37% and an inhibition at 5 µM of 37 ± 1%.
Regarding `O=C(N[C@@H](CCCN1CCc2ccccc2C1)C(=O)NCCc1ccccc1)c1ccccc1-c1ccccc1` [Compound 24, (2S)-N-(2-phenylethyl)-2-[(2-phenylphenyl)formamido]-5-(1,2,3,4-tetrahydroisoquinolin-2-yl)pentanamide], the inhibitory constant (Ki) was 320 ± 10 nM on hNPFF2 and 500 ± 10 nM on hNPFF1.
Regarding `CN(CCC[C@H](NC(=O)c1ccccc1-c1ccccc1)C(=O)NCCc1ccccc1)Cc1ccccc1` [Compound 15, (2S)-5-[benzyl(methyl)amino]-N-(2-phenylethyl)-2-[(2-phenylphenyl)formamido]pentanamide], the figures for the Ki at hNPFF2 and on hNPFF1 were 1100 ± 510 nM and 680 ± 160 nM, respectively.
At hNPFF2, `CN(CCC[C@H](NC(=O)c1ccccc1-c1ccccc1)C(=O)NCCc1ccccc1)CCc1ccccc1` [Compound 23, (2S)-5-[methyl(2-phenylethyl)amino]-N-(2-phenylethyl)-2-[(2-phenylphenyl)formamido]pentanamide] showed an inhibition at 0.5 µM of 22 ± 3% and an inhibition at 5 µM of 35 ± 8%. Also, the Ki on hNPFF1 worked out at 103 ± 15 nM.
For `CN(CCc1ccccc1)C(=O)[C@H](CCCNCc1ccccc1)NC(=O)c1ccccc1-c1ccccc1` [Compound 5, (2S)-5-(benzylamino)-N-methyl-N-(2-phenylethyl)-2-[(2-phenylphenyl)formamido]pentanamide], the Ki is 1300 ± 590 nM at hNPFF2 and 56 ± 11 nM at hNPFF1.
On hNPFF2, `O=C(N[C@@H](CCCN1CCN(C(=O)c2ccccc2)CC1)C(=O)NCCc1ccccc1)c1ccccc1-c1ccccc1` [Compound 39, (2S)-5-(4-benzoylpiperazin-1-yl)-N-(2-phenylethyl)-2-[(2-phenylphenyl)formamido]pentanamide] showed an inhibition at 0.5 µM of 0% and an inhibition at 5 µM of 17%. Further, at hNPFF1, the Ki turned out to be 187 ± 9 nM.
At hNPFF2, `CN(CCC[C@H](NC(=O)c1ccccc1-c1ccccc1)C(=O)NCCc1ccccc1)Cc1cccc(Cl)c1` [Compound 18, (2S)-5-{[(3-chlorophenyl)methyl](methyl)amino}-N-(2-phenylethyl)-2-[(2-phenylphenyl)formamido]pentanamide] came in with an inhibition at 0.5 µM of 8 ± 5% and an inhibition at 5 µM of 40 ± 3%. On hNPFF1, this molecule had an inhibition at 0.5 µM of 8 ± 3% and an inhibition at 5 µM of 45 ± 2%.
In the same order, the values of `O=C(N[C@@H](CCCN1CCC(N2C(=O)Cc3ccccc32)CC1)C(=O)NCCc1ccccc1)c1ccccc1-c1ccccc1` [Compound 37, (2S)-5-[4-(2-oxo-2,3-dihydro-1H-indol-1-yl)piperidin-1-yl]-N-(2-phenylethyl)-2-[(2-phenylphenyl)formamido]pentanamide] are 0%, 45%, 21 ± 6% and 42 ± 3%.
